According to patent US20160136229A1, “MATERIALS FOR POSITIVE CATHEPSIN B MODULATION AND METHODS OF USE FOR TREATING MILD COGNITIVE IMPAIRMENT (MCI), EARLY DEMENTIA, A-SYNUCLEINOPATHY, TRAUMATIC BRAIN INJURY, CARDIOMYOPATHY, EYE DISEASE AND SKIN DAMAGE” (University of North Carolina at Pembroke, priority 2013, published 2016):

Experiments:
11-month Fischer rats [1] = experiment: Passive avoidance task in 11-month Fischer rats (model of MCI and early dementia); type: in vivo, rat; conditions: 27 mg/kg daily
Procedure: (§1) FIG. 2. The cathepsin B modulatory compound PADK improved learning and memory in 11-month Fischer rats, a model of mild cognitive impairment (MCI) and early dementia. A classic passive avoidance task to assess memory utilized a bi-sectioned apparatus consisting of a brightly-lit compartment and a dark compartment separated by a small door. […] In this figure, the female rats were injected daily with vehicle or 27 mg/kg PADK. Following each morning's injection, the rats were placed individually into the bright compartment and, after 10 s, the door was opened through which the rats typically entered immediately (3 min total time in apparatus/rat/day). Panel A: On the seventh injection day, latency time before entering the opened doorway was measured (pre-shock bars, mean±SEM), after which the door was closed to contain the animal in the dark compartment. A mild foot shock of 0.6 mA, 2 s duration, was then administered to the contained rat via the floor grid. Following the next day's injections, rats were again placed in the bright compartment and latency times measured after the door was opened (post-shock bars). […] Brains were removed after the behavior studies in order to assess cathepsin B levels.
In the 11-month Fischer rats, a model of MCI and early dementia, PADK improved passive avoidance memory. […]

11-month Fischer rats [2] = experiment: Exploratory habituation in novel field, Fischer rats; type: in vivo, rat; conditions: 27 mg/kg daily, vs vehicle-treated rats
Procedure: as §1
The animal groups were also tested across two days in the same novel field, and the number of grid crossings per 3-min period was measured to determine exploratory habituation.

active cathepsin B = molecular target: T1, active cathepsin B (Mus musculus, UniProt P10605); experiment: Active cathepsin B staining in PADK-treated mice; type: in vivo; conditions: 18 mg/kg/d×9 days, ip, vs vehicle
T1 construct: from tissue; host or cells: brain and CNS regions of mice (PADK-treated mice, A53T transgenic and wild-type mice, C57BL/6 mice)
T1 sequence (P10605 80-333 limits assumed): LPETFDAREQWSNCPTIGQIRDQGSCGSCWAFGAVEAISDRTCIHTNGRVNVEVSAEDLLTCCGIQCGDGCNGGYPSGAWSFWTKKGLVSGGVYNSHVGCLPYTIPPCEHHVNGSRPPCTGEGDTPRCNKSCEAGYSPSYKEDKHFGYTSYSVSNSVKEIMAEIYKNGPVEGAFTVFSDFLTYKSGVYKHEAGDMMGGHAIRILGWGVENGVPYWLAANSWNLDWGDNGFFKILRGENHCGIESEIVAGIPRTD
Procedure: (§2) FIG. 4. Enhancing lysosome efficiency with the cathepsin B modulator PADK leads to reductions of multiple types of proteinopathy-related accumulation events. […] Age-matched wild-type mice (wt) and 9-10-month mutant human APP mice, a model of early dementia, treated with or without PADK were assessed for the 4-kDa Δβ peptide, the active form of cathepsin B (act CB), and other proteins in hippocampal samples (C). Similar treatment groups used another APP mouse model at 20-22 months of age to measure clearance of APP carboxyterminal fragments APP-αCTF and APP-βCTF (D). Rat hippocampal slice cultures from the untreated control group (con) and slices treated with submicromolar Δβ42 (early tauopathy model) in the absence or presence of PADK (5 μM for 4 days) were assessed for phosphorylated tau (pTau) and other proteins (E). For a model of early α-synucleinopathy, human A53T α-synuclein transgenic mice, at 7 months old, were studied with or without PADK treatment and assessed for human α-synuclein (α-syn) in TX-100 extracts of hippocampus and for other proteins in hippocampal homogenates (F). Plotted data (±SEM) were compared to neighboring vehicle groups by unpaired t-tests: *p=0.02, **p<0.01, ***p<0.001. APPswind and APP-PS1 mice are described in Butler et al., (2011), the entire content of which is hereby incorporated herein by reference.

Aβ peptide = Aβ peptide in hippocampal samples of mutant human APP mice; type: in vivo, mouse; conditions: PADK-treated transgenic mice; correlated with augmented active CatB in brain
Procedure: as §2, with “reference. […]” for “reference.”

APP-αCTF and APP-βCTF = experiment: Clearance of APP carboxyterminal fragments in APP mouse model; type: in vivo; conditions: PADK-treated transgenic mice, 20-22 months; correlated with augmented active CatB
Procedure: as §2, with “reference. […]” for “reference.”

[3] = system: human A53T α-synuclein transgenic mice; experiment: Open field test in A53T α-synuclein transgenic mice; type: in vivo, mouse; conditions: A53T mice 7-8 months; 18 mg/kg/day for 11 days
Procedure: FIG. 5. The cathepsin B modulator PADK also has a behavioral effect during early α-synucleinopathy. Vehicle-treated and PADK in the model of early α-synucleinopathy, human A53T α-synuclein transgenic mice, 7-8 months old, were injected with vehicle or PADK (18 mg/kg/day) for 11 days and their locomotor activity was measured in the open field test (OFT) for two days, center and perimeter crossings were measured. No difference in center crossings was found on day 1 as compared to wild-type mice (left graph), thus an indication of pre-symptomatic early stage Parkinson's disease (PD) before typical locomotor deficits. However, center crossings are often used as a measure of altered anxiety in PD mice. […] The altered anxiety in the vehicle-treated A53T mice appears to be a selective effect since perimeter crossings on day 2 were unchanged (right graph).

cathepsin B = experiment: Cathepsin B species immunoblot in heart tissue of A53T mice; type: in vivo, mouse
Procedure: FIG. 8. PADK also enhances cathepsin B species in the heart. The A53T early α-synucleinopathy mouse model was injected daily with vehicle or PADK (i.p., 18 mg/kg/day) to test for changes in heart tissue. […] Positions of molecular weight standards (kDa) are shown on the left side of the immunoblot. (B) In the lower graph, ratios between CB-30 and CB-105 (mean±SEM) provide a good example of the unique PADK effect on cathepsin B species in the heart. **P<0.01 as compared to vehicle-treated A53T mice.
Ratio measures between the 30-kDa form and the 105-kDa species indicate a unique PADK effect on cathepsin B species in the heart (FIG. 8 bar graph).

rats = experiment: Adverse effect observation after oral dosing in rats; type: in vivo, rat; conditions: 15 mg/kg twice a day, 10 days
bacterial = experiment: Bacterial cytotoxicity test; type: cell-based; conditions: tested at up to a 1000 times the IC50 of the toxin mitomycin C

**Q.** How did the “passive avoidance behavior (latency post-shock)” value (11-month Fischer rats [1]; day after 0.6 mA foot shock, vs vehicle, P=0.016) turn out when C[C@H](NC(=O)[C@H](Cc1ccccc1)NC(=O)OCc1ccccc1)C(=O)C=[N+]=[N-] [PADK, N-carbobenzyloxy-L-phenylalanyl-L-alanyl-diazomethylketone] was run?
**A.** Its value is “improve passive avoidance behavior”.

**Q.** And the “latency time before entering the opened doorway, pre-shock” value (11-month Fischer rats [1]; seventh injection day, vs vehicle-treated aged rats)?
**A.** The value was “no difference”.

**Q.** And the “grid crossings per 3-min period, day 1” value (11-month Fischer rats [2])?
**A.** The value was “No significant difference”.

**Q.** And the “exploratory habituation, second day” value (11-month Fischer rats [2]; P<0.05)?
**A.** The value was “improved habituation”.

**Q.** And the “levels of active cathepsin B” value (active cathepsin B)?
**A.** The value was “increased levels of active cathepsin B”.

**Q.** What about the Aβ peptide level (Aβ peptide) of the same molecule?
**A.** Its Aβ peptide level is “reductions”.

**Q.** What about the “APP carboxy-terminal fragments (αCTF and βCTF)” value (APP-αCTF and APP-βCTF) of the same molecule?
**A.** The value was “reductions”.

**Q.** And the “center crossings on day 2 (altered anxiety)” value [3]?
**A.** The value was “did not consistently exhibit such a positive trend”.

**Q.** What about the “high molecular weight cathepsin B species (CB-80, CB-85, CB-105) in heart” value (cathepsin B; A53T mice, i.p., 18 mg/kg/day) of the same molecule?
**A.** Its value is “returned the high molecular weight species to near normal levels”.

**Q.** And the “ratio between active cathepsin B form of 30 kDa and the precursor of >100 kDa” value (cathepsin B; heart tissue, p<0.01 vs vehicle-treated A53T mice)?
**A.** The value was “enhances the ratio”.

**Q.** What about the “adverse effects during behavioral tests” value (rats) of the same molecule?
**A.** The value was “no evidence of adverse effects”.

**Q.** What about the bacterial cytotoxicity (bacterial) of the same molecule?
**A.** Its bacterial cytotoxicity is “did not cause bacterial cytotoxicity”.
